Inconclusive results are not listed.
System: nude mice, LX-1 lung xenograft intrarenal, tumor weight T/C
Assay: NCI In Vivo Anticancer Drug Screen. Data for tumor model Human Lung LX-1 Xenograft (intrarenal inoculation) in NU/NU Swiss (nude) mice
Conditions: endpoint: mean tumor weight change, higher = larger tumour
Method in brief: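 Tumor-bearing mice receive test compound or vehicle; tumor size is then measured in each group. The treated value is divided by the vehicle value to give T/C.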

[1] = dose: 200.0 mg/kg/injection, schedule: Q04DX003 (sc), vehicle: saline
[2] = dose: 400.0 mg/kg/injection, schedule: Q04DX003 (sc), vehicle: saline
[3] = dose: 300.0 mg/kg/injection, schedule: Q04DX003 (sc), vehicle: Klucel (hydroxypropylcellulose) (HPC)
[4] = dose: 600.0 mg/kg/injection, schedule: Q04DX003 (sc), vehicle: Klucel (hydroxypropylcellulose) (HPC)
[5] = dose: 1200.0 mg/kg/injection, schedule: Q04DX003 (sc), vehicle: Klucel (hydroxypropylcellulose) (HPC)
[6] = dose: 75.0 mg/kg/injection, schedule: Q04DX003 (sc), vehicle: Klucel (hydroxypropylcellulose) (HPC)
[7] = dose: 150.0 mg/kg/injection, schedule: Q04DX003 (sc), vehicle: Klucel (hydroxypropylcellulose) (HPC)
[8] = dose: 50.0 mg/kg/injection, schedule: Q04DX003 (sc), vehicle: saline
[9] = dose: 300.0 mg/kg/injection, schedule: Q04DX003 (sc), vehicle: saline with Tween-80
[10] = dose: 600.0 mg/kg/injection, schedule: Q04DX003 (sc), vehicle: saline with Tween-80
[11] = dose: 1200.0 mg/kg/injection, schedule: Q04DX003 (sc), vehicle: saline with Tween-80
[12] = dose: 2400.0 mg/kg/injection, schedule: Q04DX003 (sc), vehicle: saline with Tween-80
[13] = dose: 75.0 mg/kg/injection, schedule: Q04DX003 (sc), vehicle: saline
[14] = dose: 400.0 mg/kg/injection, schedule: Q04DX003 (sc), vehicle: Klucel (hydroxypropylcellulose) (HPC)
[15] = dose: 12.5 mg/kg/injection, schedule: Q01DX010 (sc), vehicle: saline with Tween-80
[16] = dose: 25.0 mg/kg/injection, schedule: Q01DX010 (sc), vehicle: saline with Tween-80
[17] = dose: 50.0 mg/kg/injection, schedule: Q01DX010 (sc), vehicle: saline with Tween-80

For `CC(C)NCC(O)COc1ccc(O)c(O)c1` (centres undefined), the T/C (dose: 100.0 mg/kg/injection, schedule: Q04DX003 (sc), vehicle: saline) was 104 % of control, the T/C [1] was 84 % of control and the T/C [2] was 114 % of control. For the same compound, the T/C (dose: 800.0 mg/kg/injection, schedule: Q04DX003 (sc), vehicle: saline) was 54 % of control.

In the case of `Cc1ccc(NCC2(/N=C/c3ccccc3)OC(CO)C(O)C2O)cc1` (centres undefined), the T/C [3] is reported as 122 % of control, the T/C [4] is reported as 98 % of control and the T/C [5] is reported as 80 % of control. For the same compound, the T/C (dose: 2400.0 mg/kg/injection, schedule: Q04DX003 (sc), vehicle: Klucel (hydroxypropylcellulose) (HPC)) was 98 % of control.

For `COC1C(CO)OC(n2cnc3c(=S)nc(N)[nH]c32)C1O` (centres undefined), the T/C [6] was 118 % of control, the T/C [7] was 110 % of control and the T/C [3] was 86 % of control. For the same compound, the T/C [4] was 66 % of control.

For `OCCN1CCN(CC/C=C2/c3ccccc3Sc3ccc(Cl)cc32)CC1`, the T/C (dose: 6.25 mg/kg/injection, schedule: Q04DX003 (sc), vehicle: saline) was 78 % of control, the T/C (dose: 12.5 mg/kg/injection, schedule: Q04DX003 (sc), vehicle: saline) was 68 % of control and the T/C (dose: 25.0 mg/kg/injection, schedule: Q04DX003 (sc), vehicle: saline) was 52 % of control. For the same compound, the T/C [8] was 43 % of control.

For `C/C=C/c1cc2n(c1)C(=O)c1cc(OC3OC(C)C(NC)C(C)(O)C3O)c(C)c(O)c1NC2O` (centres undefined), the T/C (dose: 50.0 micrograms/kg/injection, schedule: Q04DX003 (sc), vehicle: saline) was 54 % of control, the T/C (dose: 200.0 micrograms/kg/injection, schedule: Q04DX003 (sc), vehicle: saline) was 92 % of control and the T/C (dose: 400.0 micrograms/kg/injection, schedule: Q04DX003 (sc), vehicle: saline) was 91 % of control.

`[O-][n+]1c(CN2CCCCC2)nc2cccc3c2c1-c1ccccc1-3` was tested, and the T/C [9] was 82 % of control, the T/C [10] was 68 % of control and the T/C [11] was 77 % of control. The T/C [12] was 109 % of control.

For `C[n+]1c(/C=N/NC(N)=S)ccc2ccccc21`, the T/C [9] was 93 % of control, the T/C [10] was 101 % of control and the T/C [11] was 102 % of control.

With `CCOC(=O)C(N)CSC(=O)NC` (centres undefined) the T/C [8] was 165 % of control and the T/C [2] was 94 % of control.

`CNc1cccnc1/C=N/NC(N)=S` was tested, and the T/C [9] was 94 % of control, the T/C [10] was 57 % of control and the T/C [11] was 67 % of control. The T/C [12] was 75 % of control.

For `O=C(Nc1nncs1)c1cccs1`, the T/C [9] was 119 % of control, the T/C [10] was 85 % of control and the T/C [11] was 120 % of control.

In the case of `O=C(O)CCCc1ccc(N(CCCl)CCCl)cc1`, the T/C (dose: 16.0 mg/kg/injection, schedule: Q01DX010 (sc), vehicle: saline with Tween-80) is reported as 30 % of control.

`c1cc(NC2CCCCC2)ccc1CN1CCOCC1` was tested, and the T/C (dose: 50.0 mg/kg/injection, schedule: Q01DX010 (sc), vehicle: saline + Tween-80 + alcohol) was 38 % of control, the T/C (dose: 100.0 mg/kg/injection, schedule: Q01DX010 (sc), vehicle: saline + Tween-80 + alcohol) was 74 % of control and the T/C (dose: 800.0 mg/kg/injection, schedule: Q01DX010 (sc), vehicle: saline + Tween-80 + alcohol) was 84 % of control. For the same compound, the T/C (dose: 1600.0 mg/kg/injection, schedule: Q01DX010 (sc), vehicle: saline + Tween-80 + alcohol) was 84 % of control.

For `O=C(O)C(O)C(O)C1[O][Sb][O]C1C(=O)O` (centres undefined), the T/C (dose: 37.5 mg/kg/injection, schedule: Q04DX003 (sc), vehicle: saline) was 106 % of control and the T/C [13] was 105 % of control.

With `CCC1=C[C@H]2CN(CCc3c([nH]c4ccccc34)[C@@](C(=O)OC)(c3cc4c(cc3OC)N(C)[C@H]3[C@@](O)(C(=O)NC)[C@H](OC(C)=O)[C@]5(CC)C=CCN6CC[C@]43[C@@H]65)C2)C1` the T/C (dose: 0.5 mg/kg/injection, schedule: Q04DX003 (sc), vehicle: water) was 63 % of control, the T/C (dose: 1.0 mg/kg/injection, schedule: Q04DX003 (sc), vehicle: water) was 67 % of control and the T/C (dose: 4.0 mg/kg/injection, schedule: Q04DX003 (sc), vehicle: water) was 10 % of control.

For `C[n+]1cccc(NC(=O)c2ccc(NC(=O)C34CCC(C(=O)Nc5ccc(C(=O)Nc6ccc[n+](C)c6)cc5)(CC3)CC4)cc2)c1`, the T/C (dose: 12.5 mg/kg/injection, schedule: Q04DX003 (sc), vehicle: saline with Tween-80) was 103 % of control, the T/C (dose: 25.0 mg/kg/injection, schedule: Q04DX003 (sc), vehicle: saline with Tween-80) was 76 % of control and the T/C (dose: 50.0 mg/kg/injection, schedule: Q04DX003 (sc), vehicle: saline with Tween-80) was 53 % of control.

In the case of `C/C=C1\C[C@@H]2C(OC)Nc3cc(O)c(OC)cc3C(=O)N2C1` (some centres undefined), the T/C (dose: 0.5 mg/kg/injection, schedule: Q04DX003 (sc), vehicle: saline) is reported as 93 % of control, the T/C (dose: 1.0 mg/kg/injection, schedule: Q04DX003 (sc), vehicle: saline) is reported as 111 % of control and the T/C (dose: 2.0 mg/kg/injection, schedule: Q04DX003 (sc), vehicle: saline) is reported as 107 % of control. The T/C (dose: 4.0 mg/kg/injection, schedule: Q04DX003 (sc), vehicle: saline) was 96 % of control.

With `O=S(=O)(SC(S(=O)(=O)c1ccccc1)S(=O)(=O)c1ccccc1)c1ccccc1` the T/C (dose: 100.0 mg/kg/injection, schedule: Q04DX003 (sc), vehicle: Klucel (hydroxypropylcellulose) (HPC)) was 115 % of control, the T/C [14] was 69 % of control and the T/C [4] was 63 % of control. For the same compound, the T/C (dose: 800.0 mg/kg/injection, schedule: Q04DX003 (sc), vehicle: Klucel (hydroxypropylcellulose) (HPC)) was 77 % of control and the T/C [5] was 65 % of control.

`CCN(CC)c1ccc2cc(-c3nc4ccccc4n3C)c(=O)oc2c1` was tested, and the T/C [6] was 105 % of control and the T/C [7] was 81 % of control.

With `CNC(=O)ON(C(C)=O)C(=O)NC` the T/C (dose: 12.5 mg/kg/injection, schedule: Q01DX010 (sc), vehicle: saline) was 109 % of control and the T/C (dose: 25.0 mg/kg/injection, schedule: Q01DX010 (sc), vehicle: saline) was 102 % of control.

In the case of `O=C1C(O)=C(c2ccccc2)C(=O)C(O)=C1c1ccccc1`, the T/C [13] is reported as 80 % of control and the T/C (dose: 150.0 mg/kg/injection, schedule: Q04DX003 (sc), vehicle: saline) is reported as 71 % of control.

For `O=c1cc(CCl)[nH]nc1CCl`, the T/C (dose: 6.25 mg/kg/injection, schedule: Q01DX010 (sc), vehicle: saline with Tween-80) was 92 % of control, the T/C [15] was 55 % of control and the T/C [16] was 49 % of control. The T/C [17] was 106 % of control.

`O=[N+]([O-])c1nccn1CC(O)CO` (centres undefined) was tested, and the T/C (dose: 600.0 mg/kg/injection, schedule: Q04DX003 (sc), vehicle: saline) was 91 % of control, the T/C (dose: 1200.0 mg/kg/injection, schedule: Q04DX003 (sc), vehicle: saline) was 78 % of control and the T/C (dose: 2400.0 mg/kg/injection, schedule: Q04DX003 (sc), vehicle: saline) was 108 % of control.

`Cc1ncc(CNC(=O)N(CCCl)N=O)c(N)n1` was tested, and the T/C (dose: 18.75 mg/kg/injection, schedule: Q04DX003 (sc), vehicle: saline) was 61 % of control.

For `CCC1CN2C(=N1)c1ccccc1-c1cc(Cl)ccc12` (centres undefined), the T/C [15] was 54 % of control, the T/C [16] was 60 % of control and the T/C [17] was 107 % of control.

With `C(C#CCN1CCOCC1)#CCN1CCOCC1` the T/C [3] was 124 % of control, the T/C [4] was 76 % of control and the T/C [5] was 84 % of control.

`OCCCN1CCCCC1CO` (centres undefined) was tested, and the T/C [1] was 98 % of control.

For `O=Cc1ccc([N+](=O)[O-])s1`, the T/C [16] was 94 % of control, the T/C [17] was 105 % of control and the T/C (dose: 100.0 mg/kg/injection, schedule: Q01DX010 (sc), vehicle: saline with Tween-80) was 81 % of control. The T/C (dose: 200.0 mg/kg/injection, schedule: Q01DX010 (sc), vehicle: saline with Tween-80) was 30 % of control.

In the case of `O=C1CC2(C(=O)N1CN1CCCCC1)c1ccccc1-c1ccccc12`, the T/C (dose: 200.0 mg/kg/injection, schedule: Q04DX003 (sc), vehicle: Klucel (hydroxypropylcellulose) (HPC)) is reported as 224 % of control and the T/C [14] is reported as 170 % of control.

In the case of `COC(=O)C[C@](O)(CCCC(C)(C)O)C(=O)O[C@@H]1C(OC)=C[C@]23CCCN2CCc2cc4c(cc2[C@H]13)OCO4`, the T/C (dose: 0.5 mg/kg/injection, schedule: Q01DX010 (sc), vehicle: saline) is reported as 115 % of control and the T/C (dose: 1.0 mg/kg/injection, schedule: Q01DX010 (sc), vehicle: saline) is reported as 61 % of control.

In the case of `NC(Cc1ccc(N(CCCl)CCCl)cc1)C(=O)O` (centres undefined), the T/C (dose: 2.5 mg/kg/injection, schedule: Q04DX003 (sc), vehicle: Klucel (hydroxypropylcellulose) (HPC)) is reported as 75 % of control, the T/C (dose: 5.0 mg/kg/injection, schedule: Q04DX003 (sc), vehicle: Klucel (hydroxypropylcellulose) (HPC)) is reported as 105 % of control and the T/C (dose: 40.0 mg/kg/injection, schedule: Q04DX003 (sc), vehicle: Klucel (hydroxypropylcellulose) (HPC)) is reported as 22 % of control.

Source: PubChem BioAssay AID264 (DTP/NCI, 2004)
